Consider two compounds from patent US20250312468A1, “ANTI-PROTAC ANTIBODIES AND COMPLEXES” (Merck Patent GmbH, priority 2021, published 2025).

For one assay, the system named is MDAMB468 cells. The experiment in a line: CellTiter-Glo cell viability assay (VHH-based PAX). The note with it: MDAMB468, PROTAC alone. How it is done:
(§1) Several cell viability experiments were performed following the procedure described below: Cells were seeded in different media into white cell culture-treated flat and clear bottom multiwell plates followed by overnight incubation in a humid chamber at 37° C. and 5% CO2. Complexation was performed as described in chapter 7.4.
(§2) The solutions were added to the cells based on the antibody concentration using nanodrop dispension using a Tecan D300e Digital Dispenser and all wells were normalized to the same volume using 0.3% TW20 in PBS pH 7.4 and DMSO to a final solvent concentration of 0.05% DMSO and 0.003% TW20. Incubation was performed at 37° C. at 5% or 10% CO2 dependent on the medium. The assay was developed after 3 days if not otherwise stated using CellTiter-Glo Luminescent Cell Viability Assay as described in the manufacturer's protocol. In brief, the plates were equilibrated to room temperature for 30 minutes. 100 mL CellTiter-Glo Buffer were added to the CellTiter-Glo Substrate Flask and mixed well. 30 μL of the reagent was transferred to each well. After incubation for 3 minutes at room temperature while shaking at 550 rpm, the plate was incubated for another 10 minutes at room temperature. The luminescence was read on an Envision reader from Perkin Elmer. Solvent alone and Bortezomib (1.0E-05 M) served as high control (100% viability) and low control (0% viability), respectively. Raw data were converted into percent cell viability relative to the high and low control, which were set to 100% and 0%, respectively. […] The concentration corresponds to the concentration of PROTACs in the PAX.
Background: ATP-based viability assays read luminescence as a measure of living cells.

Another assay concerns HCC827. Description: CellTiter-Glo cell viability assay (VHH-based PAX). The note with it: HCC827, PROTAC alone. How it is done:
as §1, §2

For the next assay, the system named is A431. Description: CellTiter-Glo cell viability assay (VHH-based PAX). As to conditions: A431, PROTAC alone. On the procedure: as §1, §2
The subject of a further assay is HEPG2 cells. Description: CellTiter-Glo cell viability assay (VHH-based PAX). The note with it: HEPG2, PROTAC alone. How it is done:
as §1, §2

The next assay concerns MCF7. The experiment in a line: CellTiter-Glo cell viability assay (VHH-based PAX). As to conditions: MCF7, PROTAC alone. On the procedure:
as §1, §2

A further assay concerns SKOV3. The experiment in a line: CellTiter-Glo cell viability assay (VHH-based PAX). The note with it: SKOV3, PROTAC alone. On the procedure:
as §1, §2

The next assay has as its target CD33xMIC13. Description: SPR affinity of VHH clone (antibody fusion) to PROTACs. As to conditions: CD33xMIC13 immobilized, 25° C., read-out: KD [M] for antibody binding to PROTAC. On the procedure:
(§3) The kinetic and affinity parameters of protein-PROTAC interactions were evaluated by SPR. The anti-PROTAC VHH clones MIC5-MIC14 were immobilized as CD33 or CLL1 antibody fusion (the manufacturing of fusion proteins and the used linker is described in chapter 7.9) onto a CM5 (Series S) sensor chip via the standard amine coupling procedure, at 25° C. Prior to immobilization, the carboxymethylated surface of the chip was activated with 400 mM 1-ethyl-3-(3-dimethylaminopropyl)-carbodiimide and 100 mM N-hydroxysuccinimide for 7 min. Hit anti-PROTAC VHH as CD33 and CLL1 antibody fusions were diluted to 10 μg/ml in 10 mM Acetate at pH 4.5 and immobilized on the activated surface chip for 7 min, in order to reach 3,000 to 6,000 response units (RU). The remaining activated carboxymethylated groups were blocked with a 10 min injection of 1 M ethanolamine pH 8. HBS-N, which consists of 10 mM HEPES pH 7.4 and 150 mM NaCl, was used as the background buffer during immobilization. PROTACs were prediluted in DMSO, diluted 1:50 in running buffer (12 mM phosphate pH 7.4, 137 mM NaCl, 2.7 mM KCl, 0.05% Tween20, 2% DMSO) and injected at ten different concentrations using two-fold dilution series, from 1 μM to 0.002 μM. A DMSO solvent correction (1%-3%) was performed to account for variations in bulk signal and to achieve high-quality data. Interaction analysis cycles consisted of a 300 sec sample injection (30 μL/min; association phase) followed by 900 sec of buffer flow (dissociation phase).
(§4) All sensorgrams were processed by first subtracting the binding response recorded from the control surface (reference flow-channel), followed by subtracting of the buffer blank injection from the active flow-channel (target protein immobilized). All datasets were fit to a simple 1:1 Langmuir interaction model to determine the kinetic rate constants. Experiments were performed on a Biacore 8k+ (Cytiva, Uppsala, Sweden) at 25° C. and the interactions were evaluated using the provided Biacore Insight Evaluation software.

A further assay concerns the target CD33xMIC14. The assay is described as above. As to conditions: CD33xMIC14 immobilized, 25° C., read-out: KD [M] for antibody binding to PROTAC. How it is done: as §3, §4
In another assay the target is CLL1xMIC7. Described as above. As to conditions: CLL1xMIC7 immobilized, 25° C., read-out: KD [M] for antibody binding to PROTAC. How it is done:
as §3, §4

For another assay, the target named is CD33xMIC12. The assay is described as above. As to conditions: CD33xMIC12 immobilized, 25° C., read-out: KD [M] for antibody binding to PROTAC. How it is done:
as §3, §4

A further assay addresses CD33xMIC5. The assay is described as above. The note with it: CD33xMIC5 immobilized, 25° C., read-out: KD [M] for antibody binding to PROTAC. On the procedure: as §3, §4
Another assay concerns the target CD33xMIC6. Described as above. The note with it: CD33xMIC6 immobilized, 25° C., read-out: KD [M] for antibody binding to PROTAC. On the procedure: as §3, §4
Another assay deals with CD33xMIC8. The description is as above. The note with it: CD33xMIC8 immobilized, 25° C., read-out: KD [M] for antibody binding to PROTAC. How it is done:
as §3, §4

The target of the next assay is CD33xMIC9. Described as above. The note with it: CD33xMIC9 immobilized, 25° C., read-out: KD [M] for antibody binding to PROTAC. On the procedure: as §3, §4
A further assay has as its target CD33xMIC11. Described as above. As to conditions: CD33xMIC11 immobilized, 25° C., read-out: KD [M] for antibody binding to PROTAC. On the procedure:
as §3, §4

In a further assay the target is CD33xMIC7. The description is as above. The note with it: CD33xMIC7 immobilized, 25° C., read-out: KD [M] for antibody binding to PROTAC. How it is done:
as §3, §4

A further assay deals with CD33xMIC10. The description is as above. The note with it: CD33xMIC10 immobilized, 25° C., read-out: KD [M] for antibody binding to PROTAC. On the procedure: as §3, §4

For `Cc1ncsc1-c1ccc([C@H](C)NC(=O)[C@@H]2C[C@@H](O)CN2C(=O)[C@@H](NC(=O)COCCCOCCNC(=O)C[C@@H]2N=C(c3ccc(Cl)cc3)c3c(sc(C)c3C)-n3c(C)nnc32)C(C)(C)C)cc1` [ARV771], the IC50 (as a rule, the concentration needed to halve the response being measured) turned out to be 49 nM in the assay on MDAMB468 cells; 91 nM in the assay with HCC827; 65 nM with A431; 89 nM with HEPG2 cells; 26 nM with MCF7; 32 nM in the assay with SKOV3. The Kd (in general, the free concentration of one partner at which half of the binding sites on the other are occupied at equilibrium, for simple one-to-one binding) on CD33xMIC13 amounted to 1.3e-08 M; on CD33xMIC14, 1.4e-07 M; at CLL1xMIC7, 8.8e-09 M; on CD33xMIC12, 5.6e-09 M; on CD33xMIC5, 2.7e-07 M; on CD33xMIC6 it was 5.3e-08 M. Moreover, the Kd at CD33xMIC8 was 3.1e-08 M; at CD33xMIC9, 4e-09 M; at CD33xMIC11, 3.7e-09 M; at CD33xMIC7, 4.2e-09 M; on CD33xMIC10, 1.4e-07 M.
For the compound `Cc1ncsc1-c1ccc(CNC(=O)[C@@H]2C[C@@H](O)CN2C(=O)[C@@H](NC(=O)CCCCCCCCCCNC(=O)c2cc3c(cc2CS(C)(=O)=O)-c2cn(C)c(=O)c4[nH]cc(c24)CN3c2ncc(F)cc2F)C(C)(C)C)cc1` [GNE987], the IC50 is 0.41 nM in the assay with MDAMB468 cells; 0.77 nM in the assay on HCC827; 0.34 nM in the assay on A431; 2.6 nM in the assay with HEPG2 cells; 0.15 nM in the assay on MCF7; 0.61 nM in the assay with SKOV3. For the same compound, the Kd is 2.3e-08 M on CD33xMIC13; 1e-08 M at CD33xMIC14; < 1e-10 M on CLL1xMIC7; 4.2e-08 M on CD33xMIC12; 9.6e-10 M at CD33xMIC5; 4.1e-08 M on CD33xMIC6. Moreover, the Kd was 6.5e-09 M at CD33xMIC8; 4.3e-08 M on CD33xMIC9; 2e-08 M on CD33xMIC11; < 1e-10 M at CD33xMIC7; 1.3e-08 M on CD33xMIC10.
